Measured values published in patent US20100286264A1, “COMPOSITION COMPRISING A NITROOXYDERIVATIVE OF ACETAMINOPHEN AND A ANTICONVULSANT DRUG FOR THE TREATMENT OF NEUROPATHIC PAIN” (Nicox S.A., priority 2008, published 2010).

System: spinal cord neuronal responses from adult male Wistar rats with mononeuropathy
Assay: Recording of single motor units: nociceptive responses in rats with mononeuropathy (partial sciatic nerve ligation)
Format: in vivo, rat
Conditions: for Nociceptive responses to noxious mechanical stimulation: i.v., ± S.E.M.
Method: The application routes were intravenous (i.v.). The enhancement of the antinociception was studied by isobolographic analysis. Mononeuropathy was induced under anesthetic regime, seven days before the experiment, using the partial ligation of the sciatic nerve technique. The development of hyperalgesia was assessed by behavioral experiments, studying withdrawal reflex responses evoked by mechanical and thermal stimulation.

CC(=O)Nc1ccc(OC(=O)CCCO[N+](=O)[O-])cc1 [Compound 1, 4-(nitrooxy)butanoic acid 4-(N-acetylamino)phenyl ester]
Nociceptive responses to noxious mechanical stimulation (compound 1 15 μmol/kg alone (gabapentin 0)): 98 ± 6 percentage of vehicle values | Nociceptive responses to noxious mechanical stimulation (compound 1 30 μmol/kg alone (gabapentin 0)): 95 ± 2 percentage of vehicle values | Nociceptive responses to noxious mechanical stimulation (compound 1 60 μmol/kg alone (gabapentin 0)): 91 ± 4.5 percentage of vehicle values | Nociceptive responses to noxious mechanical stimulation (compound 1 120 μmol/kg alone (gabapentin 0)): 86 ± 5 percentage of vehicle values | Nociceptive responses to noxious mechanical stimulation (compound 1 240 μmol/kg alone (gabapentin 0)): 75 ± 9 percentage of vehicle values | Effect on nociceptive responses evoked by noxious mechanical and electrical stimulation (intravenous, mechanical and electrical stimulation): dose-dependently reduced the nociceptive responses | ID50 for noxious mechanical stimulation (intravenous, rats with mononeuropathy, noxious mechanical stimulation): 542 ± 5 µmol/kg

NCC1(CC(=O)O)CCCCC1 [Gabapentin, reference compound]
Nociceptive responses to noxious mechanical stimulation (gabapentin 20 μmol/kg alone): 100 ± 5 percentage of vehicle values | Nociceptive responses to noxious mechanical stimulation (gabapentin 40 μmol/kg alone): 95 ± 1 percentage of vehicle values | Nociceptive responses to noxious mechanical stimulation (gabapentin 80 μmol/kg alone): 95 ± 2 percentage of vehicle values | Nociceptive responses to noxious mechanical stimulation (gabapentin 160 μmol/kg alone): 79 ± 3 percentage of vehicle values | Nociceptive responses to noxious mechanical stimulation (gabapentin 320 μmol/kg alone): 59 ± 6 percentage of vehicle values
